Experimental data: patent publication US10161008B2, “miR-193a-3p and associated genes predict tumorigenesis and chemotherapy outcomes” (Genedia Biotech Co., Ltd., priority 2011, dated 2018)
Converted amounts (≈) assume the structure as drawn. Read-outs that look alike come from different tables or passages of the source.

Tests used:
miR-193a-3p = experiment: qRT-PCR of miR-193a-3p after demethylation in QGY-7703; assay type: cell-based, human; conditions: QGY-7703, treated 2 and 4 days
Text: A. The physical map of the miR-193 gene region for DNA methylation analysis. (FIG. 3A discloses SEQ ID NO: 23) B. The methylation state of each of 27 CpGs in the mock treated (Mock) and treated for 2 days (2D) and 4 days (4D). C. The methylation frequency in B (unit: mC/Total) is plotted. D. The methylation state of the miR-193a gene determined by methylation-specific PCR is shown. Control: the unmethylated (U) and methylated (M) control DNA, respectively. E. Relative miR-193a-3p level determined by qRT-PCR was plotted. (*P<0.05, **P<0.01).
RNA: Total RNA was isolated using TRIzol reagent (Invitrogen, USA). Complementary DNA synthesis was performed using a primeScript RT reagent kit (Tiangen Biotech Co., Ltd., Beijing, China) for the SYBR® Green-based real-time PCR analysis in Rotor-Gene™ 6000 system, Qiagen, Germany) of SRSF2, E2F1, ABCC8, and CASP2S/L. The expression of miR-193a-3p (Ribobio, Guangzhou, China) was assessed using the 2-Ct method with RNA content normalized to the U6 RNA (Ribobio, Guangzhou, China) and to β-actin for other genes and plotted. The high-throughput, quantitative nuclease protection based analysis (Bourzac K. M. et al. (2011) J Biotechnol, 154, 68-75; Pechhold S. et al. (2009) Nat Biotechnol, 27, 1038-1042) on a customized array that are designed for the simultaneous determination of the expression of 42 human miRs and 5 housekeeping genes was determined. […]

[1] = system: CASP2L and CASP2S mRNAs of caspase 2; experiment: qRT-PCR of caspase 2 splice forms in SMMC-7721; assay type: cell-based, human; conditions: SMMC-7721, low dose 4 μg/mL, one day
Experimental: (§1) RNA: Total RNA was isolated using TRIzol reagent (Invitrogen, USA). Complementary DNA synthesis was performed using a primeScript RT reagent kit (Tiangen Biotech Co., Ltd., Beijing, China) for the SYBR® Green-based real-time PCR analysis in Rotor-Gene™ 6000 system, Qiagen, Germany) of SRSF2, E2F1, ABCC8, and CASP2S/L. The expression of miR-193a-3p (Ribobio, Guangzhou, China) was assessed using the 2-Ct method with RNA content normalized to the U6 RNA (Ribobio, Guangzhou, China) and to β-actin for other genes and plotted. The high-throughput, quantitative nuclease protection based analysis (Bourzac K. M. et al. (2011) J Biotechnol, 154, 68-75; Pechhold S. et al. (2009) Nat Biotechnol, 27, 1038-1042) on a customized array that are designed for the simultaneous determination of the expression of 42 human miRs and 5 housekeeping genes was determined. Only miR-193a-3p expression was shown.
(§2) In light of all the known so far, this ratio is very likely to be most robust indicator to 5-FU resistance of HCC. To determine the 5-FU impact in this system, this example treated both cell lines by 4 μg/mL (a low dose) and 300 μg/mL (a high dose) for one day, respectively. […] As expected, both RNA and protein of SRSF2 were elevated by a larger margin than E2F1 in both QGY-7703 and SMMC-7721 (FIGS. 8B, C and F). […]

QGY-7703 cells = experiment: MTT-based IC50 determination in QGY-7703; assay type: cell-based, human; conditions: for IC50: Homo sapiens
Experimental: (§3) The log phase of cell culture was obtained in Dulbecco modified Eagle medium (Invitrogen) containing 10% calf serum and 1% streptomycin-penicillin at 37° C. in 5% CO2. The thiazolyl blue tetrazolium […] cell proliferation assay was carried out as follows: 5×10^3 to 1×10^4 cells in triplicate were cultured into each well of a 96-well plate (in triplicate) for 72 h, followed by a 3-h 37° C. incubation after addition of 10 μL (5 mg/mL) MTT salt (Sigma, USA). The OD 570-nm reading was obtained; the mean and SD of the triplicate experiments were calculated and plotted (Fei Q. et al. (2008) Acta Biochim Biophys Sin (Shanghai), 40, 466-477).
(§4) The relative OD 570-nm readings (mean and SD) in each drug-treated set and the no-drug mock sample were calculated (%) and plotted against the logarithm of the drug concentration. The linear regression parameters were determined for each curve and the IC50 extrapolated (Andrisano V. et al. (2001) J Chromatogr B Biomed Sci Appl, 753, 375-383). Sources of the drugs are as follows: 5-FU, Shanghai Xudong Haipu Pharmaceutical, China; gemcitabine, Jiangsu Hansen Pharmaceutical, China; epirubicin, Shenzhen Main Luck Pharmaceutical, China; irinotecan, Aventis Pharmaceutical, Germany; paclitaxel, Bristol-Myers Squibb, USA; mitomycin, Hisun Pharmaceutical, China); docetaxel, Jiangsu Hengrui Medicine, China; vinorelbine, Yangzhou Aosaikang Pharmaceutical, China; and cisplatin, Qilu Pharmaceutical Factory, China.

[2] = system: CASP2L and CASP2S mRNAs of caspase 2; experiment: qRT-PCR of caspase 2 splice forms in QGY-7703; assay type: cell-based, human; conditions: QGY-7703, low dose 4 μg/mL, one day
Experimental: as §1, §2

SMMC-7721 cells = experiment: MTT-based IC50 determination in SMMC-7721; assay type: cell-based; conditions: Homo sapiens
Experimental: as §3, §4

[3] = system: Bcap-37 versus ZR-75-30 breast cancer cells; experiment: IC50 screen of breast cancer cell lines; assay type: cell-based, human; conditions: Bcap-37 vs ZR-75-30
Experimental: The log phase of cell culture was obtained in Dulbecco modified Eagle medium (Invitrogen) containing 10% calf serum and 1% streptomycin-penicillin at 37° C. in 5% CO2. The thiazolyl blue tetrazolium blue (MTT)-based cell proliferation assay was carried out as follows: 5×10^3 to 1×10^4 cells in triplicate were cultured into each well of a 96-well plate (in triplicate) for 72 h, followed by a 3-h 37° C. incubation after addition of 10 μL (5 mg/mL) MTT salt (Sigma, USA). The OD 570-nm reading was obtained; the mean and SD of the triplicate experiments were calculated and plotted (Fei Q. et al. (2008) Acta Biochim Biophys Sin (Shanghai), 40, 466-477).
The relative OD 570-nm readings (mean and SD) in each drug-treated set and the no-drug mock sample were calculated (%) and plotted against the logarithm of the drug concentration. The linear regression parameters were determined for each curve and the IC50 extrapolated (Andrisano V. et al. (2001) J Chromatogr B Biomed Sci Appl, 753, 375-383). […]

HepG2 cells = experiment: MTT-based IC50 determination in HepG2; assay type: cell-based, human
Experimental: The log phase of cell culture was obtained in Dulbecco modified Eagle medium (Invitrogen) containing 10% calf serum and 1% streptomycin-penicillin at 37° C. in 5% CO2. The thiazolyl blue tetrazolium blue (MTT)-based cell proliferation assay was carried out as follows: 5×10^3 to 1×10^4 cells in triplicate were cultured into each well of a 96-well plate (in triplicate) for 72 h, followed by a 3-h 37° C. incubation after addition of 10 μL (5 mg/mL) MTT salt (Sigma, USA).
The relative OD 570-nm readings (mean and SD) in each drug-treated set and the no-drug mock sample were calculated (%) and plotted against the logarithm of the drug concentration. […] Sources of the drugs are as follows: 5-FU, Shanghai Xudong Haipu Pharmaceutical, China; gemcitabine, Jiangsu Hansen Pharmaceutical, China; epirubicin, Shenzhen Main Luck Pharmaceutical, China; irinotecan, Aventis Pharmaceutical, Germany; paclitaxel, Bristol-Myers Squibb, USA; mitomycin, Hisun Pharmaceutical, China); docetaxel, Jiangsu Hengrui Medicine, China; vinorelbine, Yangzhou Aosaikang Pharmaceutical, China; and cisplatin, Qilu Pharmaceutical Factory, China.

[4] = system: SMMC-7721 tumor xenografts; experiment: SMMC-7721 tumor growth in nude mice; assay type: in vivo
Experimental: After transfection with 50 nM miR-193a-3p or mock antagomirs (Ribobio, China) for 24 h, SMMC-7721 cells were collected and subcutaneously injected into the left and right flanks (1.25×10^6 cells/point) of each nude mouse (10 total), respectively. On day 12 after cell injection, 5 mice received 5-FU (75 mg/kg mouse body weight) intraperitoneal and then twice again in 1 week. The remaining 5 mice received phosphate-buffered saline (PBS) as a mock treatment control. And at the same time, the right side of all mice tumor were intratumorally injected with miR-193a-3p antagomir and left side with mock antagomir (according to manufacture instruction, Ribobio). To monitor the tumor growth, the volume was measured with a Vernier caliper on days 12, 18, 25, and 32 and calculated as Volume=W^2×L×0.5 (W and L represent the largest and next largest tumor diameters [cm]) and then plotted. Mice were humanely sacrificed on day 32, and tumors were weighed and photographed. Immunostaining was performed for ki67, SFS2, and E2F1 expression in both tumors of mouse number 4 (mock treated) mouse number 6 (5-FU treated).

[5] = antagomir treated SMMC-7721, 5-FU 75 mg/kg intraperitoneal, day 32
[6] = mock-transfected SMMC-7721, 5-FU 75 mg/kg intraperitoneal, day 32

Nc1ncn([C@H]2C[C@H](O)[C@@H](CO)O2)c(=O)n1 [5-Aza-2′-deoxycytidine]
steady state level of miR-193a-3p (miR-193a-3p): raised the steady state level of miR-193a-3p

O=c1[nH]cc(F)c(=O)[nH]1 [5-FU, 5-fluorouracil]
CASP2L RNA, fold of the untreated level [1]: 7.38 fold | CASP2S RNA, fold of the untreated level [1]: 1.97 fold | IC50 (QGY-7703 cells; QGY-7703, 72 h, MTT, read-out: IC50 to 5-FU): 0.39 µg/mL (≈ 3 µM) | IC50 (QGY-7703 cells; QGY-7703, SRSF2 siRNA-transfected QGY-7703, read-out: IC50 of 5-FU): 2.22 µg/mL (≈ 17.1 µM) | IC50 (QGY-7703 cells; QGY-7703, miR-193a-3p mimic-transfected QGY-7703, read-out: 5-FU IC50): 5.29 µg/mL (≈ 40.7 µM) | IC50 (QGY-7703 cells; QGY-7703, mock mimic-transfected QGY-7703, read-out: 5-FU IC50): 0.72 µg/mL (≈ 5.54 µM) | IC50 (QGY-7703 cells; QGY-7703, mock siRNA-transfected QGY-7703, read-out: IC50 of 5-FU): 0.68 µg/mL (≈ 5.23 µM) | IC50 of QGY-7703 lower than that of SMMC-7721 (QGY-7703 cells; QGY-7703 vs SMMC-7721): approximately 105.2 fold | CASP2L RNA, fold of the untreated level [2]: 14.62 fold | CASP2S RNA, fold of the untreated level [2]: 1.46 fold | IC50 (SMMC-7721 cells; SMMC-7721, 72 h, MTT, read-out: IC50 to 5-FU): 41 µg/mL (≈ 315 µM) | IC50 (SMMC-7721 cells; SMMC-7721, miR-193a-3p antagomir-transfected SMMC-7721, read-out: 5-FU IC50): 13.4 µg/mL (≈ 103 µM) | IC50 (SMMC-7721 cells; SMMC-7721, mock-transfected SMMC-7721, read-out: 5-FU IC50): 46.7 µg/mL (≈ 359 µM) | Bcap-37 more resistant than ZR-75-30 (relative IC50) [3]: 69.0 fold | IC50 of HepG2 lower than SMMC-7721 (HepG2 cells; HepG2 vs SMMC-7721): 27.3 fold | IC50 (HepG2 cells; Homo sapiens, HepG2, 72 h, MTT, read-out: IC50 to 5-FU): 1.45 µg/mL (≈ 11.1 µM) | tumor volume [4, 5]: 0.29 cm^3 | tumor weight [4, 5]: 0.37 g | tumor volume ([4]; mock-transfected SMMC-7721, 5-FU 75 mg/kg intraperitoneal, day 25): 0.45 cm^3 | tumor volume [4, 6]: 0.89 cm^3 | tumor weight [4, 6]: 0.82 g
